The values that follow come from US20260138976A1 (Hoffmann-La Roche Inc., priority 2022, published 2026).

Assay [1] has as its target T1, DGKα (hDGKalpha(1-735)-N-His) (Homo sapiens, UniProt P23743).
T1 construct: hDGKalpha(1-735)-N-His; His (N); made in house; host or cells: Sf21 insect cells (baculovirus)
The assay can be described thus: In vitro DGK inhibition assay, DGKalpha ADP Glo (in house). The format is biochemical. The note with it: 4 nM DGKα, 25 μM ATP, 125 uM DLG in liposomes, 1 hour reaction. Summed up: (§1)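 ADP-Glo luminescence measured ADP formed over 1 h by Sf21-expressed full-length human enzymes: DGKα at 4 nM with 25 µM ATP, DGKζ at 2 nM with 50 µM ATP, both on 125 µM DLG in PS/PC liposomes. Dose–response used 11 threefold dilutions at 2% final DMSO.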
(In general: ADP-Glo turns the ADP formed in a reaction into a luminescent signal.)

Assay [2] deals with T2, DGKζ (hDGKzeta(1-928)-N-His) (Homo sapiens, UniProt Q13574).
T2 construct: hDGKzeta(1-928)-N-His; His (N); made in house; host or cells: Sf21 insect cells (baculovirus)
The assay can be described thus: In vitro DGK inhibition assay, DGKzeta ADP Glo (in house). The assay is classed as biochemical. The note with it: 2 nM DGKζ, 50 μM ATP, 125 uM DLG in liposomes, 1 hour reaction. Summed up:
as §1

Another assay concerns primary human T-cells. The assay can be described thus: IL2 secretion measurements (24 h, CD3-stimulated T-cells, PBS counter screen). The format is cell-based. The settings on record: for Emax IL2 (% activation): CD3 condition, normalised to DMSO (neutral) and 20 μM reference compound A1 = 100%; for EC50: Homo sapiens, T-cell, CD3-stimulated primary human T-cells, IL2 secretion, fitted sigmoidal curve, read-out: Tcell IL2 CD3 EC50. In outline: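 IL-2 secretion was measured by ProQuantum or ELISA after 24 h culture of expanded human T-cells with compound, on CD3-antibody-coated plates or PBS counter-screen plates. Dosing used 5–6 points from a 20 or 10 μM final top at 3.333-fold steps in 0.2% DMSO. EC50/Emax were scaled between DMSO and 20 μM reference A1.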
A general note: A counterscreen serves to expose hits that act by an unwanted route or on another target.

T1 sequence (P23743 whole entry): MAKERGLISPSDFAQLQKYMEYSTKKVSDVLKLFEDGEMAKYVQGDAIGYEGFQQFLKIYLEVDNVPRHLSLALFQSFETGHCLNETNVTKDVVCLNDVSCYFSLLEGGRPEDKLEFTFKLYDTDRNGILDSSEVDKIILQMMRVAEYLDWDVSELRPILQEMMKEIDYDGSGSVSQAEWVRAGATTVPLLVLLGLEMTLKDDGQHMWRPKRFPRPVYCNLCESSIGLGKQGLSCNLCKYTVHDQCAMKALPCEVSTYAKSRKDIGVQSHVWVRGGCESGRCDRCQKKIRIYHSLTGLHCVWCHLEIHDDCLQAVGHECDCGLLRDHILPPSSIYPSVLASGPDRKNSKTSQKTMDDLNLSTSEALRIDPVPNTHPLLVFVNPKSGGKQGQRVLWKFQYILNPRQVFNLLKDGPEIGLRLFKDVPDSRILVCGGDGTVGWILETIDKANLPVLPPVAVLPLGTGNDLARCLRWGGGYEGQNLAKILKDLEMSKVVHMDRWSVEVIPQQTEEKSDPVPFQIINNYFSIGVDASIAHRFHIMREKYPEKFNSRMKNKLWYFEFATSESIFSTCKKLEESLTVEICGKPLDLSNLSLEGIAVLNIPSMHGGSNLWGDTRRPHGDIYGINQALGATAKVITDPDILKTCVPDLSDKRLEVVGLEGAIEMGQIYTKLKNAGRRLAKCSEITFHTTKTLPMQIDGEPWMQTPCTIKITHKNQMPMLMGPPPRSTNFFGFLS
T2 sequence (Q13574 whole entry): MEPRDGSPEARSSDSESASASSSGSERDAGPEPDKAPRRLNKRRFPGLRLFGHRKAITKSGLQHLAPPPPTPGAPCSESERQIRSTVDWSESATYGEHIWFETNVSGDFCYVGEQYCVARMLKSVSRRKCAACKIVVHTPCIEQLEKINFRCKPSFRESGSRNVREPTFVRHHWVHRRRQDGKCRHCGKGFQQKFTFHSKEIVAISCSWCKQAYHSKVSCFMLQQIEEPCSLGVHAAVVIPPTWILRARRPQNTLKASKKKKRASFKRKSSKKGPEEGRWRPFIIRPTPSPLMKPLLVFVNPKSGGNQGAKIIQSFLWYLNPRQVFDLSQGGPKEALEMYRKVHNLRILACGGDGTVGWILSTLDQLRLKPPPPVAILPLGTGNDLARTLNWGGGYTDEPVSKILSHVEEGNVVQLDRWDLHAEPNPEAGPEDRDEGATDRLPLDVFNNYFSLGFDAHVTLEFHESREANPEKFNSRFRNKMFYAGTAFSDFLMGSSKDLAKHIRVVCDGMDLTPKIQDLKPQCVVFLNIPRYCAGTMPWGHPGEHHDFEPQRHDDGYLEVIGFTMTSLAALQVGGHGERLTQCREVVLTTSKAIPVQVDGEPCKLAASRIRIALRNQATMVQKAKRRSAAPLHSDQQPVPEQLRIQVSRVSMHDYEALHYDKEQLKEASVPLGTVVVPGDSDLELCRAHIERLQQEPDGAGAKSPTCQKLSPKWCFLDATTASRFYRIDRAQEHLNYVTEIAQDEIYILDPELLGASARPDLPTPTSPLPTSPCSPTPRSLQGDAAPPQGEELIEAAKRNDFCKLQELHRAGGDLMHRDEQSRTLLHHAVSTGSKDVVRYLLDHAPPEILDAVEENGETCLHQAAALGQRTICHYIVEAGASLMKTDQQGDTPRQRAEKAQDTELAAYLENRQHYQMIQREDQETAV

Turning to `CCN1CC(c2nnc(-c3ccc4c(c3)N(Cc3ccc(-c5noc(C(C)(C)C)n5)cc3)C(=O)[C@@H](N)CS4(=O)=O)o2)CC(F)(F)C1` (stereo partly drawn) [Example 181, (3R)-3-amino-5-[[4-(5-tert-butyl-1,2,4-oxadiazol-3-yl)phenyl]methyl]-7-[5-(1-ethyl-5,5-difluoro-3-piperidyl)-1,3,4-oxadiazol-2-yl]-1,1-dioxo-2,3-dihydro-1λ^6,5-benzothiazepin-4-one], the half-inhibitory concentration (IC50) (commonly the concentration needed to halve the response being measured) in assay [1] is greater than 62.5 µM; in assay [2], 0.2 µM. Moreover, the “Emax IL2 (% activation)” value in the assay on primary human T-cells came to 66 % activation. Further, the EC50 – broadly, the concentration at which the effect is half-maximal – in the assay on primary human T-cells turned out to be 6.89 µM.
The matching figures for `CC(C)(c1nnc(-c2ccc3c(c2)N(Cc2ccc(-c4noc(C(F)(F)F)n4)cc2)C(=O)[C@@H](N)CS3(=O)=O)o1)C(F)(F)F` [Example 166]: 3.03 µM, 1.72 µM, 385 % activation and 0.158 µM.
In the case of `N[C@H]1CS(=O)(=O)c2ccc(-c3noc(-c4cccnc4Cl)n3)cc2N(Cc2ccc(-c3noc(C4CC4)n3)cc2)C1=O` [Example 85, (3R)-3-amino-7-[5-(2-chloro-3-pyridyl)-1,2,4-oxadiazol-3-yl]-5-[[4-(5-cyclopropyl-1,2,4-oxadiazol-3-yl)phenyl]methyl]-1,1-dioxo-2,3-dihydro-1λ^6,5-benzothiazepin-4-one], in assay [1], the IC50 is greater than 62.5 µM. The half-inhibitory concentration (IC50) in assay [2] amounted to 2.1 µM. In addition, in the assay on primary human T-cells, the “Emax IL2 (% activation)” value came to 4 % activation and the EC50 was greater than 10 µM.
For `C[C@@](N)(c1nnc(-c2ccc3c(c2)N(Cc2ccc(-n4ccc(C(F)(F)F)n4)cc2)C(=O)[C@@H](N)CS3(=O)=O)o1)C(F)(F)F` [Example 157, (3R)-3-amino-7-[5-[(1R)-1-amino-2,2,2-trifluoro-1-methyl-ethyl]-1,3,4-oxadiazol-2-yl]-1,1-dioxo-5-[[4-[3-(trifluoromethyl)pyrazol-1-yl]phenyl]methyl]-2,3-dihydro-1λ^6,5-benzothiazepin-4-one], in that order: 41.4 µM, 2.28 µM, 106 % activation and 1.78 µM.
`COC(=O)N1CC2CC(c3nnc(-c4ccc5c(c4)N(Cc4ccc(-c6ccc(C(F)(F)F)cc6)cc4)C(=O)[C@@H](N)CS5(=O)=O)o3)(C2)C1` [Example 60, methyl 1-[5-[(3R)-3-amino-1,1,4-trioxo-5-[[4-[4-(trifluoromethyl)phenyl]phenyl]methyl]-2,3-dihydro-1λ^6,5-benzothiazepin-7-yl]-1,3,4-oxadiazol-2-yl]-3-azabicyclo[3.1.1]heptane-3-carboxylate]: the IC50 in assay [1] was determined as 3.63 µM; in assay [2] it was 3.08 µM. In addition, in the assay with primary human T-cells, the “Emax IL2 (% activation)” value is 163 % activation. Besides, in the assay with primary human T-cells, the concentration for a half-maximal effect (EC50) is 0.424 µM.
On to `CC1(c2nnc(-c3ccc4c(c3)N(Cc3ccc(-c5ccc(C(F)(F)F)cn5)cc3)C(=O)[C@@H](N)CS4(=O)=O)o2)COC1` [Example 150, (3R)-3-amino-7-[5-(3-methyloxetan-3-yl)-1,3,4-oxadiazol-2-yl]-1,1-dioxo-5-[[4-[5-(trifluoromethyl)-2-pyridyl]phenyl]methyl]-2,3-dihydro-1λ^6,5-benzothiazepin-4-one], for which the values for the 50% inhibitory concentration (IC50) in assay [1] and in assay [2] were greater than 19.8 µM and 9.91 µM, respectively. For the same compound, the “Emax IL2 (% activation)” value with primary human T-cells is on record as 35 % activation. In addition, the concentration for a half-maximal effect (EC50) in the assay on primary human T-cells was greater than 10 µM.
The matching figures for `N[C@H]1CS(=O)(=O)c2ccc(-c3nnc(N4CCOC5(CC5)C4)o3)cc2N(Cc2ccc(-c3noc(C(F)(F)F)n3)cc2)C1=O` [Example 77]: 48.2 µM, 1.53 µM, 170 % activation and 3.45 µM.
The matching figures for `COC(=O)N1CC2CC(c3nnc(-c4ccc5c(c4)N(Cc4ccc(-c6ccc(OC)cc6)cc4)C(=O)[C@@H](N)CS5(=O)=O)o3)(C2)C1` [Example 59, methyl 1-[5-[(3R)-3-amino-5-[[4-(4-methoxyphenyl)phenyl]methyl]-1,1,4-trioxo-2,3-dihydro-1λ^6,5-benzothiazepin-7-yl]-1,3,4-oxadiazol-2-yl]-3-azabicyclo[3.1.1]heptane-3-carboxylate]: 3.04 µM, 1.14 µM, 175 % activation and 0.596 µM.
For `CC(C)(C)c1nnc(-c2ccc3c(c2)N(Cc2ccc(-c4noc(C(F)(F)F)n4)cc2)C(=O)[C@@H](N)CS3(=O)=O)o1` [Example 23, (3R)-3-amino-7-(5-tert-butyl-1,3,4-oxadiazol-2-yl)-1,1-dioxo-5-[[4-[5-(trifluoromethyl)-1,2,4-oxadiazol-3-yl]phenyl]methyl]-2,3-dihydro-1λ^6,5-benzothiazepin-4-one], in that order: 1.53 µM, 0.523 µM, 120 % activation and 0.769 µM.
With `CC(C)Nc1nnc(-c2cc3c(cc2F)S(=O)(=O)C[C@H](N)C(=O)N3Cc2ccc(-c3noc(C(F)(F)F)n3)cc2)o1` [Example 6, (3R)-3-amino-8-fluoro-7-[5-(isopropylamino)-1,3,4-oxadiazol-2-yl]-1,1-dioxo-5-[[4-[5-(trifluoromethyl)-1,2,4-oxadiazol-3-yl]phenyl]methyl]-2,3-dihydro-1λ^6,5-benzothiazepin-4-one], in assay [1], the IC50 worked out at 1.87 µM. For the same compound, inhibition in assay [2] was half-maximal at 0.696 µM (IC50). In the assay on primary human T-cells, the “Emax IL2 (% activation)” value is 212 % activation and the EC50 is 1.17 µM.
As for `N[C@H]1CS(=O)(=O)c2ccc(-c3nnc(C4(C5CC5)CCCO4)o3)cc2N(Cc2ccc(-c3nnc(C(F)(F)F)o3)cc2)C1=O` (stereo partly drawn) [Example 97, (3R)-3-amino-7-[5-(2-cyclopropyltetra-hydrofuran-2-yl)-1,3,4-oxadiazol-2-yl]-1,1-dioxo-5-[[4-[5-(trifluoromethyl)-1,3,4-oxadiazol-2-yl]phenyl]methyl]-2,3-dihydro-1λ6,5-benzothiazepin-4-one], the IC50 in assay [1] is 4.68 µM. Also, the midpoint of inhibition in assay [2], the IC50, lay at 2.08 µM. Further, in the assay with primary human T-cells, the “Emax IL2 (% activation)” value is recorded as 115 % activation and the EC50 amounted to 6.35 µM.
For `CC(C)(C#N)c1nnc(-c2ccc3c(c2)N(Cc2ccc(-c4ccc(C(F)(F)F)cn4)cc2)C(=O)[C@@H](N)CS3(=O)=O)o1` [Example 47], in that order: 7.28 µM, 0.842 µM, 163 % activation and 0.67 µM.
The compound `COC(F)(c1nnc(-c2ccc3c(c2)N(Cc2ccc(-c4nnc(C5CC5)o4)cc2)C(=O)[C@@H](N)CS3(=O)=O)o1)C(F)(F)F` (some centres unmarked) [Example 65] yielded an IC50 in assay [1] of 2.49 µM. In assay [2], this compound came in with an IC50 of 6.44 µM. In the assay on primary human T-cells, the “Emax IL2 (% activation)” value amounted to 92 % activation and the EC50 is 1.42 µM.
The matching figures for `Cc1nc(F)ccc1-c1nc(-c2ccc3c(c2)N(Cc2ccc(-c4noc(C5CC5)n4)cc2)C(=O)[C@@H](N)CS3(=O)=O)no1` [Example 86, (3R)-3-amino-5-[[4-(5-cyclopropyl-1,2,4-oxadiazol-3-yl)phenyl]methyl]-7-[5-(6-fluoro-2-methyl-3-pyridyl)-1,2,4-oxadiazol-3-yl]-1,1-dioxo-2,3-dihydro-1λ^6,5-benzothiazepin-4-one]: greater than 62.5 µM, 0.642 µM, 101 % activation and 4.16 µM.
The matching figures for `N[C@H]1CS(=O)(=O)c2ccc(-c3noc(-c4cccnc4C(F)(F)F)n3)cc2N(Cc2ccc(-c3noc(C4CC4)n3)cc2)C1=O` [Example 87, (3R)-3-amino-5-[[4-(5-cyclopropyl-1,2,4-oxadiazol-3-yl)phenyl]methyl]-1,1-dioxo-7-[5-[2-(trifluoromethyl)-3-pyridyl]-1,2,4-oxadiazol-3-yl]-2,3-dihydro-1λ^6,5-benzothiazepin-4-one]: greater than 62.5 µM, 2.31 µM, 16 % activation and greater than 10 µM.
Take `COc1ccc(-c2ccc(CN3C(=O)[C@@H](N)CS(=O)(=O)c4ccc(-c5nnc(N6CCC(F)(F)C6)o5)cc43)cc2)cc1` [Example 76, (3R)-3-amino-7-[5-(3,3-difluoropyrrolidin-1-yl)-1,3,4-oxadiazol-2-yl]-5-[[4-(4-methoxyphenyl)phenyl]methyl]-1,1-dioxo-2,3-dihydro-1λ^6,5-benzothiazepin-4-one]: the figures for the IC50 in assay [1] and in assay [2] were 26.1 µM and 1.08 µM, respectively. The “Emax IL2 (% activation)” value with primary human T-cells worked out at 297 % activation. Further, the EC50 with primary human T-cells came out at 2.64 µM.
For `CC(C)(C#N)c1nnc(-c2ccc3c(c2)N(Cc2ccc(-n4ccc(C(F)(F)F)n4)cc2)C(=O)[C@@H](N)CS3(=O)=O)o1` [Example 121, 2-[5-[(3R)-3-amino-1,1,4-trioxo-5-[[4-[3-(trifluoromethyl)pyrazol-1-yl]phenyl]methyl]-2,3-dihydro-1λ^6,5-benzothiazepin-7-yl]-1,3,4-oxadiazol-2-yl]-2-methyl-propanenitrile], in that order: greater than 6.25 µM, 0.767 µM, 207 % activation and 0.732 µM.
